# Measurements as given in publication PMC4923258, “A Recombinant Human Pluripotent Stem Cell Line Stably Expressing Halide-Sensitive YFP-I152L for GABAAR and GlyR-Targeted High-Throughput Drug Screening and Toxicity Testing” (Frontiers in Molecular Neuroscience, 2016).
# Values joined by “and” are separate entries in the source; they are usually repeats but may differ in a detail not shown here. Identical values can stand only once. Like-named read-outs stand apart in the source and are kept apart here.
# What was measured:
# [1] = test system: GABAAR; format: cell-based, human; conditions: 1 μM GABA
# Procedure: (§1) To this end, human pluripotent NT2-YFP-I152L cells were differentiated into neuronal NT2-N-YFP-I152L cells as described in the Methods section and were seeded at a density of 2 × 10^4 cells in each well of a 96-well plate. 48 h later, the culture medium was completely removed and was replaced by 50 μl NaCl control solution.
# (§2) Approximately 1 h prior to commencement of experiments culture media in 96-well plates was removed manually and was replaced by 50 μl standard control solution, which contained (in mM) NaCl 140, KCl 5, CaCl2 2, MgCl2 1, HEPES 10, and glucose 10 (pH 7.4, NaOH) upon washing the cells once in 50 μl standard control solution. […] All drugs were diluted from stocks at the day of the experiment and experiments were conducted at room temperature.
# (§3) The experimental protocol involved imaging each well for 30 s at 2 Hz acquisition rate capturing the initial fluorescence intensity in the control situation as well as the test situation upon receptor activation, respectively. Liquid handling was performed manually.
# (§4) Cells depicted in fluorescence micrographs were selected manually based on strongest quench for low and intermediate concentrations and based on cell morphology in experiments where high drug concentrations were applied. Registered images of fluorescent cells were segmented and quantitatively analyzed using NIS-Elements software (Nikon, Japan). The fluorescence signal of identified cells was measured in images acquired before and after the addition of agonist solution as the mean of all pixel values within the area of a cell. “% fluorescence quench” in chloride imaging experiments is defined as %fluorescence quench=(Finit−Ffinal)∗100/Finit where Finit and Ffinal are the initial and final values of fluorescence, respectively.
# (§5) Individual concentration responses were constructed by pooling results from ten cells in one well exposed to agonist solution. Concentration-response relationships were fitted with the following equation: F= Fmax+Fmin− Fmax/1+([Agonist]/EC50)^nH where F is the fluorescence corresponding to a particular agonist concentration, [Agonist]; Fmin and Fmax are the minimal and maximal fluorescence values, respectively; EC50 is the concentration that elicits half-maximal activation; and nH is the Hill coefficient. Curve fits were performed using a least squares fitting routine (Origin 7G, OriginLab Corporation). All averaged results are expressed as mean ± SD.
# [2] = test system: GlyR; format: cell-based, human
# Procedure: as §1, §2, §3, §4, §5
# [3] = test system: GABAAR; format: cell-based, human; conditions: GABA concentration-response, mean ± SD, n = 10
# Procedure: (§6) To assess whether the generated recombinant stem cell line is suitable to chloride imaging and functional profiling of GABAARs and GlyRs, NT2-YFP-I152L cells were differentiated into neuronal NT2-N- YFP-I152L cells as described in the Methods section and were seeded at defined density of 2 × 10^4 cells in each well of a 96-well plate. Two days later and approximately 1 h prior to fluorescence imaging, the culture medium was completely removed and was replaced by 50 μl NaCl control solution. The standard NaCl control solution contained (in mM): NaCl 140, KCl 5, CaCl2 2, MgCl2 1, HEPES 10, glucose 10, pH 7.4 using NaOH. The 96-well plate was placed onto the motorized stage of a high-content imaging system and cells were imaged in control solution to record cellular YFP fluorescence in unquenched state. Because YFP-I152L is almost insensitive to chloride, its fluorescence intensity is highest in NaCl solution allowing for optimal focussing into the optical layer of cells. […] Fluorescence quench was calculated at single cell level by quantitative analysis as described in the Methods section. […]
# (§7) The experimental protocol involved imaging each well for 30 s at 2 Hz acquisition rate capturing the initial fluorescence intensity in the control situation as well as the test situation upon receptor activation, respectively. […]
# [4] = test system: GABAAR; experiment: Proportion of cells with at least 20% fluorescence quench at saturating GABA; format: cell-based, human; conditions: for Percentage of non-treated NT2-YFP-I152L stem cells responding with at least 20% fluorescence quench: 1 mM saturating GABA; for GABAAR-positive cells as percentage of the overall population / Percentage of cells per image with fluorescence quench of at least 20%: saturating GABA
# Source text: (§8) The applicability of the established recombinant in vitro model for high-throughput GABAAR and GlyR-targeted screening in the context of lead identification and NT/DNT testing strongly depends on the proportion of GABAAR and GlyR positive NT2-N cells in the whole cell population. A very small percentage of GABAAR and GlyR expressing NT2-N cells requires a large number of individual experiments including technical and biological replicates to be conducted in order to obtain statistically sound results, potentially compromising the usability of the established cell line for the envisioned application. […] The threshold of 20% fluorescence quench was chosen because, from our experience, any measured cellular fluorescence change within a range of −20 to 20% reflects biological noise typical to the employed assay. As a starting point toward analysing the proportion of GABAAR and GlyR-positive cells we segmented the images of a total of 24 individual experiments from two different differentiation batches (GABAAR, batch #1: n = 7, batch #2: n = 6; GlyR, batch #1: n = 6, batch #2: n = 5) using a modified version of DetecTIFF^© software (Gilbert et al., [2009c]) employing two individual sets of parameters for the identification of small neuronal NT2-N-YFP-I152L and larger non-neuronal NT2-YFP-I152L cells. […] Exemplary segmentation masks created from the image shown in Figure 6A for quantitative analysis of fluorescence intensity and calculation of “% fluorescence quench” in small neuronal NT2-N-YFP-I152L cells and large non-neuronal cells are depicted in Figures 6B,C.
# (§9) Images of fluorescent cells were segmented and quantitatively analyzed using a modified version of DetecTIFF® software (Gilbert et al., [2009c]). In brief, images were segmented using an iterative size and intensity-based thresholding algorithm and the fluorescence signal of identified cells was calculated as the mean of all pixel values within the area of a cell.
# [5] = test system: GlyR; conditions: for Percentage of non-treated NT2-YFP-I152L stem cells responding with at least 20% fluorescence quench: 1 mM saturating glycine
# Source text: as §8, §9
# [6] = test system: GlyR; conditions: mean ± SD, n = 10; for nH (Hill coefficient): glycine concentration-response
# Procedure: as §6, §7
# Cells depicted in fluorescence micrographs were selected manually based on strongest quench for low and intermediate concentrations and based on cell morphology in experiments where high drug concentrations were applied. Registered images of fluorescent cells were segmented and quantitatively analyzed using NIS-Elements software (Nikon, Japan). The fluorescence signal of identified cells was measured in images acquired before and after the addition of agonist solution as the mean of all pixel values within the area of a cell. “% fluorescence quench” in chloride imaging experiments is defined as %fluorescence quench=(Finit−Ffinal)∗100/Finit where Finit and Ffinal are the initial and final values of fluorescence, respectively. […]
# [7] = test system: GABAARs; design: method as in Kumamoto and Murata, 1995; conditions: ref Kumamoto and Murata, 1995; cited from earlier work
# [8] = test system: GlyRs; design: method as in Harvey et al., 1999; conditions: ref Harvey et al., 1999, cited from earlier work
# [9] = read-out: IC50 (Glycine), 3 μM glycine, n = 10
# [10] = 3 μM glycine, n = 10, read-out: IC50 (Glycine)
compound,measurement,setting,value
"CN1CCc2cc3c(cc2[C@H]1[C@@H]1OC(=O)c2c1ccc1c2OCO1)OCO3 [Bicuculline, bicuculline]",IC50,"[1]; read-out: IC50 (GABA), n = 10",1.1 µM
same,Sensitivity of glycine-induced I- influx compared to GABA-dependent anion influx (lower),[2]; ratio of IC50 vs glycine and IC50 vs GABA,about 10 fold
same,IC50,[2]; [9],13.4 µM
"N#Cc1nn(-c2c(Cl)cc(C(F)(F)F)cc2Cl)c(N)c1[S+]([O-])C(F)(F)F (stereo not drawn) [Fipronil, fipronil]",IC50,"[1]; read-out: IC50 (GABA), n = 10",10.8 µM
same,IC50,[2]; [10],1.5 µM
"NCCCC(=O)O [GABA, γ-aminobutyric acid]",nH (Hill coefficient),[3],1.8 ± 0.4 and 1.8
same,Percentage of non-treated NT2-YFP-I152L stem cells responding with at least 20% fluorescence quench,[4]; replicate #1,0.62%
same,Percentage of non-treated NT2-YFP-I152L stem cells responding with at least 20% fluorescence quench,[4]; replicate #2,0.37%
same,GABAAR-positive cells as percentage of the overall population,[4]; batch #1,17 ± 8%
same,GABAAR-positive cells as percentage of the overall population,[4]; batch #2,21 ± 9%
same,Percentage of cells per image with fluorescence quench of at least 20%,"[4]; large non-neuronal cells, batch #1, n = 7",3 ± 1%
same,Percentage of cells per image with fluorescence quench of at least 20%,"[4]; large non-neuronal cells, batch #2, n = 6",6 ± 2%
same,Percentage of cells per image with fluorescence quench of at least 20%,"[4]; small cells (NT2-N-YFP-I152L), batch #1, n = 7",28 ± 13%
same,Percentage of cells per image with fluorescence quench of at least 20%,"[4]; small cells (NT2-N-YFP-I152L), batch #2, n = 6",32 ± 12%
"NCC(=O)O [Glycine, glycine]",Percentage of cells per image with fluorescence quench of at least 20%,[5],36 ± 14% and 35 ± 7%
same,Percentage of non-treated NT2-YFP-I152L stem cells responding with at least 20% fluorescence quench,[5]; replicate #1,0.68%
same,Percentage of non-treated NT2-YFP-I152L stem cells responding with at least 20% fluorescence quench,[5]; replicate #2,0.92%
same,GlyR-positive cells as percentage of the overall population,"[5]; saturating glycine, batch #1",20 ± 9%
same,GlyR-positive cells as percentage of the overall population,"[5]; saturating glycine, batch #2",19 ± 4%
same,Percentage of cells per image with fluorescence quench of at least 20%,"[5]; saturating glycine, large non-neuronal cells, batch #1, n = 6",2 ± 1%
same,Percentage of cells per image with fluorescence quench of at least 20%,"[5]; saturating glycine, large non-neuronal cells, batch #2, n = 5",4 ± 2%
same,nH (Hill coefficient),[6],1.5
same,nH (Hill coefficient),[6]; listed as glycine,1.5 ± 0.2
same,EC50,"[6]; read-out: EC50 (half-maximal activation concentration), glycine 0.1-1000 μM in NaI solution, quench 30 s after activation",4.3 µM
"Cl[C@H]1[C@H](Cl)[C@@H](Cl)[C@@H](Cl)[C@H](Cl)[C@H]1Cl [Lindane, lindane]",Inhibition of GABA-induced anion influx (in words),[1],no dose-dependent inhibitory activity
same,IC50,[2]; [10],0.0781 µM
"O=C1C[C@@H]2OCC=C3CN4CC[C@]56c7ccccc7N1[C@H]5[C@H]2[C@H]3C[C@H]46 [Strychnine, strychnine]",Inhibition of GABA-induced anion influx (in words),[1],specifically inhibited glycine but not GABA-induced anion-influx
same,IC50,[2]; [9],0.0172 µM
"[Cl-].[Cl-].[Zn+2] [Zinc, zinc chloride]",Concentrations at which inhibition of GABA-induced anion influx was observed,[1],> 100 µM
same,IC50,"[1]; zinc 10 nM-1 mM, could not be calculated, presumed, read-out: IC50 (GABA-induced anion influx)",> 1000 µM
same,Concentrations at which inhibition of glycine-induced anion influx was observed,[2]; 3 μM glycine,> 100 µM
same,IC50,"[2]; 3 μM glycine, zinc 10 nM-1 mM, could not be calculated, presumed, read-out: IC50 (glycine-induced anion influx)",> 1000 µM
same,Increase of glycine-induced fluorescence quench,"[2]; in presence of 1 and 10 μM zinc, not significant",about 10%
same,Concentrations inhibiting GABAARs,[7],> 10 µM
same,Concentrations inhibiting glycine-activated currents,[8]; high concentrations,> 100 µM
same,Concentrations potentiating glycine-activated currents,[8]; low concentrations,< 10 µM
picrotoxin,IC50,"[1]; read-out: IC50 (GABA), n = 10",5.8 µM
same,IC50,[2]; [10],1.1 µM
same,Sensitivity of GlyR compared to GABAARs (higher),[2]; ratio of IC50 vs GABA and IC50 vs glycine,approximately 5 fold
